# Laboratory results published in patent US6294542A, “Pyrimidinone compounds, pharmaceutical compositions containing the compounds and the process for preparing the same” (Boryung Pharmaceutical Co. Ltd., priority 1998, dated 2001).
# Tests used:
# [1] = test system: Angiotensin II-induced pressor response; experiment: In vivo Angiotensin II antagonism in conscious normotensive rats; conditions: Rattus norvegicus, po; P.O.; conscious normotensive male SD rats; Angiotensin II 0.1 μg/kg; read-out: ID50 (dose of test compound necessary to produce 50% inhibition of Angiotensin II-induced pressor response)
# Procedure: The antagonistic activity of the compound (I) against the angiotensin II, which is prepared by the process according to a preferred embodiment of the invention, was evaluated with relation to rats.
# In vivo Angiotensin II antagonism in conscious normotensive rats.
# Male SD rats (Charles River Japan, 9 weeks, 300-350 g) were anesthetized with pentobarbital at 50 mg/kg i.p. Both the left femoral artery and the right femoral vein were cannulated. A heparin-filled catheter (50U/ml) was tunneled subcutaneously (s.c.) to the dorsal side of the neck and exteriorized.
# Rats were permitted to recover overnight from anesthesia and allowed free access to water, but food was withheld.
# The next day, the femoral artery catheter was connected to a pressure transducer (COBE 041-500-508, USA) coupled to a polygraph (GRASS Model 7, USA) to monitor arterial blood pressure. After an appropriate equilibration period, Angiotensin II (0.1 μg/kg) was injected in the femoral vein three times during the control period.
# Test compounds were then administered orally (p.o.) at a constant volume of 2 ml/kg.
# Angiotensin II challenges were repeated at set times thereafter.
# ID50 values, the dose of test compound necessary to produce 50% inhibition of Angiotensin II-induced pressor response, were calculated from peak inhibition percentage with several doses of test compound.
# [2] = Acute Toxicity Test (oral, mice); format: in vivo; conditions: for LD50: mouse, in vivo, po
# Procedure: Respective 5 mice of ICR system, which was distributed from Korean Laboratory Animal Center, were bred in a polycarbonate breeding box at a breeding environment of 23±1° C. of temperature, 55±5% of humidity, 10-15 times/hr of evacuation, 12 hr cycle of fluorescent light luminance, and 150-300 Lux of illumination.
# After observing the mice for one week of acclimation breeding period, only normal mice were selected for laboratory work. The mice were fed with sterilized feed for laboratory animals, which was made by Cheil Jedang Co.,Ltd, and supplied with purified water to drink.
# During the acclimation period, mice, who were evaluated to be healthy, were weighed and divided into groups randomly. Individual identification of laboratory animals was performed by indumentum pigment display and tag display per breeding box.
# Establishment of dose was carried out according to a result of preliminary test in such a manner that a maximum dose group for both male and female was set to 5000 mg/kg and azeotropy was set to 1.71. Medium-high, medium and medium-low dose groups were respectively set as follows and a control group was administrated with physiological saline for injection.
# Before administration of testing substances, body weight of the laboratory animals was in the range of 24-28 g in case of male and in the range of 19-28 g in case of female, respectively. The laboratory animals were aged 6 weeks.
# Preparation of the testing substances was dissolved in physiological saline before administration. Dose was calculated according to the body weight which was measured before administration and dispensed by oral administration to a mouse who was in abrosia for 18 hours before testing.
# Observation of clinical symptom such as general change, toxic symptom and mortality was performed for all laboratory animals once an hour during 6 hours after administration on the very administration day, and once a day from the next day to 14th day of administration.
# Administration group, who was administered with testing substances, and the control group were weighed on the administration day, first, third, seventh, tenth and fourteenth days from the administration at a predetermined time for all animals who were alive.
# After finish of the test, all animals were slightly anesthetized with ether and bleeding-killed. Appearance and internal organs of the animals were examined with naked eye carefully. Animals, who died during the text, were examined in the same manner.
smiles,measurement,setting,value
"CCCCc1nc(C)c(CC(=S)N2CCCC2)c(=O)n1Cc1ccc(-c2ccccc2-c2nnn[nH]2)cc1 [Compound 8, 2-n-butyl-5-pyrrolidinothiocarbonylmethyl-6-methyl-3-[[2'-(1H-tetrazol-5-yl)-biphenyl-4-yl]methyl]-pyrimidine-4(3H)-one]",ED50,[1],0.93 mg/kg
same,Final mortality (death number/total number),"[2]; female, 1000 mg/kg oral",0/5
same,Mortality (death number/survival number),"[2]; female, 1000 mg/kg oral, day 0",0/5
same,Mortality (death number/survival number),"[2]; female, 1000 mg/kg oral, day 1",0/5
same,Mortality (death number/survival number),"[2]; female, 1000 mg/kg oral, day 2",0/5
same,Mortality (death number/survival number),"[2]; female, 1000 mg/kg oral, day 3",0/5
same,Mortality (death number/survival number),"[2]; female, 1000 mg/kg oral, day 7",0/5
same,Mortality (death number/survival number),"[2]; female, 1000 mg/kg oral, day 14",0/5
same,Final mortality (death number/total number),"[2]; female, 1710 mg/kg oral",0/5
same,Mortality (death number/survival number),"[2]; female, 1710 mg/kg oral, day 0",0/5
same,Mortality (death number/survival number),"[2]; female, 1710 mg/kg oral, day 1",0/5
same,Mortality (death number/survival number),"[2]; female, 1710 mg/kg oral, day 2",0/5
same,Mortality (death number/survival number),"[2]; female, 1710 mg/kg oral, day 3",0/5
same,Mortality (death number/survival number),"[2]; female, 1710 mg/kg oral, day 7",0/5
same,Mortality (death number/survival number),"[2]; female, 1710 mg/kg oral, day 14",0/5
same,Final mortality (death number/total number),"[2]; female, 2924 mg/kg oral",2/5
same,Mortality (death number/survival number),"[2]; female, 2924 mg/kg oral, day 0",2/5
same,Mortality (death number/survival number),"[2]; female, 2924 mg/kg oral, day 1",0/3
same,Mortality (death number/survival number),"[2]; female, 2924 mg/kg oral, day 2",0/3
same,Mortality (death number/survival number),"[2]; female, 2924 mg/kg oral, day 3",0/3
same,Mortality (death number/survival number),"[2]; female, 2924 mg/kg oral, day 7",0/3
same,Mortality (death number/survival number),"[2]; female, 2924 mg/kg oral, day 14",0/3
same,Final mortality (death number/total number),"[2]; female, 5000 mg/kg oral",4/5
same,Mortality (death number/survival number),"[2]; female, 5000 mg/kg oral, day 0",4/5
same,Mortality (death number/survival number),"[2]; female, 5000 mg/kg oral, day 1",0/1
same,Mortality (death number/survival number),"[2]; female, 5000 mg/kg oral, day 2",0/1
same,Mortality (death number/survival number),"[2]; female, 5000 mg/kg oral, day 3",0/1
same,Mortality (death number/survival number),"[2]; female, 5000 mg/kg oral, day 7",0/1
same,Mortality (death number/survival number),"[2]; female, 5000 mg/kg oral, day 14",0/1
same,Final mortality (death number/total number),"[2]; male, 1000 mg/kg oral",0/5
same,Mortality (death number/survival number),"[2]; male, 1000 mg/kg oral, day 0",0/5
same,Mortality (death number/survival number),"[2]; male, 1000 mg/kg oral, day 1",0/5
same,Mortality (death number/survival number),"[2]; male, 1000 mg/kg oral, day 2",0/5
same,Mortality (death number/survival number),"[2]; male, 1000 mg/kg oral, day 3",0/5
same,Mortality (death number/survival number),"[2]; male, 1000 mg/kg oral, day 7",0/5
same,Mortality (death number/survival number),"[2]; male, 1000 mg/kg oral, day 14",0/5
same,Final mortality (death number/total number),"[2]; male, 1710 mg/kg oral",2/5
same,Mortality (death number/survival number),"[2]; male, 1710 mg/kg oral, day 0",2/5
same,Mortality (death number/survival number),"[2]; male, 1710 mg/kg oral, day 1",0/3
same,Mortality (death number/survival number),"[2]; male, 1710 mg/kg oral, day 2",0/3
same,Mortality (death number/survival number),"[2]; male, 1710 mg/kg oral, day 3",0/3
same,Mortality (death number/survival number),"[2]; male, 1710 mg/kg oral, day 7",0/3
same,Mortality (death number/survival number),"[2]; male, 1710 mg/kg oral, day 14",0/3
same,Final mortality (death number/total number),"[2]; male, 2924 mg/kg oral",3/5
same,Mortality (death number/survival number),"[2]; male, 2924 mg/kg oral, day 0",3/5
same,Mortality (death number/survival number),"[2]; male, 2924 mg/kg oral, day 1",0/2
same,Mortality (death number/survival number),"[2]; male, 2924 mg/kg oral, day 2",0/2
same,Mortality (death number/survival number),"[2]; male, 2924 mg/kg oral, day 3",0/2
same,Mortality (death number/survival number),"[2]; male, 2924 mg/kg oral, day 7",0/2
same,Mortality (death number/survival number),"[2]; male, 2924 mg/kg oral, day 14",0/2
same,Final mortality (death number/total number),"[2]; male, 5000 mg/kg oral",4/5
same,Mortality (death number/survival number),"[2]; male, 5000 mg/kg oral, day 0",2/5
same,Mortality (death number/survival number),"[2]; male, 5000 mg/kg oral, day 1",1/3
same,Mortality (death number/survival number),"[2]; male, 5000 mg/kg oral, day 2",0/2
same,Mortality (death number/survival number),"[2]; male, 5000 mg/kg oral, day 3",0/2
same,Mortality (death number/survival number),"[2]; male, 5000 mg/kg oral, day 7",1/2
same,Mortality (death number/survival number),"[2]; male, 5000 mg/kg oral, day 14",0/1
same,LD50,[2]; female mice,4060 mg/kg
same,LD50,[2]; male mice,3170 mg/kg
